# Reference: patent US20140243348A1, “COMPOSITIONS AND METHODS FOR TREATING HERPES VIRUSES” (President and Fellows of Harvard College, priority 2011, published 2014)
# Assays:
# [1] = tested on: wild type HSV-1; test: HSV yield reduction assay (plaque assay) with HIV integrase inhibitors; type: cell-based; conditions: 100 μM; FIG. 6
# Procedure: At 48 hours post infection, viral yield samples were harvested and the yield was determined by plaque assay. Values are presented as the percent yield remaining, relative to the DMSO vehicle control treatment.
# Cells were infected with wild type HSV-1 at a multiplicity of infection of 0.01 plaque-forming units per cell and treated with the indicated concentration of the HIV integrase inhibitor specified. At 48 hours post infection, viral yield samples were harvested and the yield was determined by plaque assay. Values are presented as the percent yield remaining, relative to the DMSO vehicle control treatment.
# [2] = molecular target: HCMV UL89 (Human cytomegalovirus, UniProt P16732); conditions: cited from earlier work
# [3] = tested on: HSV-1 KOS virus; test: Screen of 118-D-24 derivatives on HSV-1 KOS replication in Hep2 cells; type: cell-based; conditions: 250 μM, MOI=0.01, 48 hours, FIG. 12
# Procedure: To evaluate the effects of 118-D-24 derivatives on HSV replication, a panel of derivatives (Table 1) (Zhao, X. Z., 2008, J. Med. Chem., vol. 51, pages 251-259) were screened for their ability to inhibit HSV-1 KOS virus replication in Hep2 cells. Hep2 cells were plated in a 6-well plate and incubated overnight to reach confluency. The cells were then inoculated with HSV-1 KOS virus at MOI=0.01 for 1 hour. Following inoculation, the virus inoculum was replaced with DMEV medium containing 118-D-24 or a derivative of 118-D-24. After 48 hours, samples were harvested by adding an equal volume of 10% non-fat milk and immediately frozen at −80° C. Samples were freeze-thawed three times to rupture the cell membranes and allow the release of virus. Virus titers were determined by titration on Vero cells. The 100% yield represents the viral titer in samples without drug treatment. […] Hep2 cells or (FIG. 14A) or HFF cells (FIG. 14B) were infected with HSV-1 virus (KOS strain) at MOI of 0.01. Samples were then processed and percent yield remaining values were calculated. EC50 and EC90 values were calculated using nonlinear regression curve fit with a variable slope. GaraphPad Prism 5 software was used for all analyses. (FIG. 14C) Cytotoxicity of XZ45 on the viability of Hep2 cells during a 48-hour incubation period was evaluated using the Promega cell titer glo assay, as described by the manufacturer. The reported values are percent […] remaining relative to the […] from cells grown in media containing DMSO alone. CC50 value was determined as described above. FIGS. 14A and 14B show the effects of XZ45 on HSV-1 replication in Hep2 cells (14A) and normal human foreskin fibroblasts (14B) and the cytotoxicity of XZ45 in Hep2 cells is shown in FIG. 14C.
# [4] = tested on: HSV-1 KOS late (gC) gene products; test: XZ45 viral gene expression by immunoblotting in Hep2 cells; type: cell-based; conditions: 10 μM XZ45, FIG. 17B
# Procedure: (§1) Hep2 cells were infected with HSV-1 KOS at an MOI=10 in the presence or absence of 10 μM XZ45. Total DNA was harvested at the times indicated, and viral DNA levels in each sample were determined by real-time PCR and were normalized to the levels of cellular DNA. […] Hep2 cells were infected with HSV-1 KOS in the presence or absence of 10 μM XZ45. Lysates were prepared for immunoblotting at the indicated times. Polypeptides were resolved by SDS-PAGE, transferred to a PVDF membrane, and probed for representative immediate-early (ICP27), early (ICP8), and late (gC) gene products.
# [5] = tested on: human cytomegalovirus (HCMV); test: XZ45 viral yield assay, HCMV; type: cell-based; conditions: FIG. 16
# Procedure: (§2) Hep2 cells were infected with HSV-1 strain KOS, strain F, or HSV-2 strain G at MOI of 0.01. The infected cells were grown in media containing increasing concentrations of XZ45 or DMSO for 48 hours. Samples were harvested and viral yield was determined by plaque assay on Vero cells. The reported values are percent yield remaining relative to cells grown in media containing DMSO alone (FIG. 15A). Hep2 cells (FIG. 15B) or HFF cells (FIG. 15C) were infected with HSV-1 virus (KOS strain) at MOI of 10 or 0.01 or with human cytomegalovirus (HCMV) (FIG. 16). Samples were then processed and percent yield remaining values were calculated as describe above.
# [6] = tested on: HSV-1 strain KOS, strain F; test: XZ45 viral yield assay, HSV-1; type: cell-based; conditions: Hep2 or HFF cells, 48 hours; FIG. 15
# Procedure: as §2
# [7] = tested on: HSV-2 strain G; test: XZ45 viral yield assay, HSV-2; type: cell-based; conditions: Hep2 cells, MOI 0.01, 48 hours; FIG. 15A
# Procedure: as §2
# [8] = molecular target: T1, ICP8 (Human herpesvirus 1, UniProt P17470); test: ssDNA binding by ICP8 (EMSA, ssDNA beads pull down, ssDNA-cellulose); conditions: three assays; FIG. 18A-18C
# T1 sequence (P17470 whole entry): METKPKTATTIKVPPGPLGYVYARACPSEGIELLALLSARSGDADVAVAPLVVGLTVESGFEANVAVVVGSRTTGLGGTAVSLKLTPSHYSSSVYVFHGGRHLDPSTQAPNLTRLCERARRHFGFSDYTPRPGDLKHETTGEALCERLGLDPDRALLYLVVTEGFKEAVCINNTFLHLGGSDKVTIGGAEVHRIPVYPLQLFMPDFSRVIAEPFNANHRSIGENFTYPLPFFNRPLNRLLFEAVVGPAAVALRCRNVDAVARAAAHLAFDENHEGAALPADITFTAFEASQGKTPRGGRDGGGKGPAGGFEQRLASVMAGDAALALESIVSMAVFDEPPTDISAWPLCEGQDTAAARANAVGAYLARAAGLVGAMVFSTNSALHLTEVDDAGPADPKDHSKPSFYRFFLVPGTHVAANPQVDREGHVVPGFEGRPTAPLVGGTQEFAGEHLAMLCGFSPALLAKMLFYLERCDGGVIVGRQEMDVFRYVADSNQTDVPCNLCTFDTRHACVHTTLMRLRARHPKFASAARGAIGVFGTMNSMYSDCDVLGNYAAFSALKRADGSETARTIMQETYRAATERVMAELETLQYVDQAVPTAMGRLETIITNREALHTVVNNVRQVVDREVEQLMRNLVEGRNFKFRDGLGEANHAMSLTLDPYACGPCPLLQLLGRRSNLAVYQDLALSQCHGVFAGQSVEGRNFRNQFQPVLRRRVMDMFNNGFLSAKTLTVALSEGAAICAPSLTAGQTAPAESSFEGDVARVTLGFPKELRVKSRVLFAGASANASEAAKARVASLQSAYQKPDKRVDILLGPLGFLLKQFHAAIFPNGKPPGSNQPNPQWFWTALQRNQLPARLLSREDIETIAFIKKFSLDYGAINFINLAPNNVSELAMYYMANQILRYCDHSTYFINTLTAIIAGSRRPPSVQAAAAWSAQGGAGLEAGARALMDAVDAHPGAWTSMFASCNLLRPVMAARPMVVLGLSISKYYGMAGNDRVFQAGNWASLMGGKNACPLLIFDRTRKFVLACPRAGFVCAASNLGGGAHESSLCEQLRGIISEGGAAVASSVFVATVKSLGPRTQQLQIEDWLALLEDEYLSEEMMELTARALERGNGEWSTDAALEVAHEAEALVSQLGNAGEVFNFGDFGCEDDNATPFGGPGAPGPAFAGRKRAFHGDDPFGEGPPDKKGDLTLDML
# Procedure: The effect of XZ45 on ssDNA binding by ICP8 was measured by EMSA assay with purified ICP8 protein using ^32P-labled polynucleotide ssDNA probe (FIG. 18A); ssDNA beads pull down assay (FIG. 18B), and ICP8 binding to ssDNA-cellulose (FIG. 18C).
# [9] = molecular target: T1, ICP8; test: D-loop assay of ICP8 mediated recombination; type: biochemical; conditions: 0, 10, 20, or 40 μM XZ45; FIG. 20
# Procedure: To further test the effect of XZ45 on ICP8 mediated recombination a D-loop assay was used. A double stranded DNA probe was mixed with a single stranded DNA oligonucleotide in the presence or absence of ICP8 with 0, 10, 20, or 40 μM XZ45. Following incubation, the reaction products were analyzed by electrophoresis through a native gel.
# [10] = tested on: HSV-1 KOS viral DNA; test: XZ45 viral DNA synthesis (real-time PCR) in Hep2 cells; type: cell-based; conditions: 10 μM XZ45, MOI=10, FIG. 17A
# Procedure: as §1
# [11] = tested on: HSV recombination; test: HSV recombination in Hep2 cells coinfected with 8LacZ and hr99; type: cell-based; conditions: 20 hours after infection, compared to PAA, FIG. 19
# Procedure: To test the effect of XZ45 on HSV recombination during viral replication, 8LacZ (deletion of ul29) and hr99 (deletion of ul5) virus were used to coinfect Hep2 cells in the presence of XZ45 or PAA. At 20 hours after infection, samples were harvested and progeny virus were tittered on Vero cells and V529 cells to determine the viral titer of recombinated virus and total virus. The recombination rate reflects the ratio between the titer of recombinated virus and total virus.
# HCMV UL89, sequence (P16732 whole entry): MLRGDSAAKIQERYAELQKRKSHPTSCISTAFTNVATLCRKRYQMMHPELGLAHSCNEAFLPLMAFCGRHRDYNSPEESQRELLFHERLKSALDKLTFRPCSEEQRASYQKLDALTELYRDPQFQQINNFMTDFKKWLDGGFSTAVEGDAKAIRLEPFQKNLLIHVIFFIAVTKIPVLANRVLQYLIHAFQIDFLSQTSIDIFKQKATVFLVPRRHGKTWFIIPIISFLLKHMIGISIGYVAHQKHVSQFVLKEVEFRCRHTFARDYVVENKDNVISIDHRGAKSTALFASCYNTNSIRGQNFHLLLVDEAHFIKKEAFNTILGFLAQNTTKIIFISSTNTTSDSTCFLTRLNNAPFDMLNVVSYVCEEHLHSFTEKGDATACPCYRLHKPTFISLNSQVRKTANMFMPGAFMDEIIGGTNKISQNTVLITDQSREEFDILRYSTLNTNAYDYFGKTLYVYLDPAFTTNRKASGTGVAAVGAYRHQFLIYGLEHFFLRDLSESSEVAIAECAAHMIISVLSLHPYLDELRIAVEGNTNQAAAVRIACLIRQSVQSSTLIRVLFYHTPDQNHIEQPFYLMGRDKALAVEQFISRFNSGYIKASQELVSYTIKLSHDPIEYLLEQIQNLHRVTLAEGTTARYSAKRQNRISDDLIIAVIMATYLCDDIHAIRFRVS
smiles,measurement,setting,value
Cc1nnc(C(=O)NC(C)(C)c2nc(C(=O)NCc3ccc(F)cc3)c(O)c(=O)n2C)o1 [Raltegravir],reduction of HSV viral yield,[1],greater than 96%
same,HCMV UL89 activity,[2],inhibit HCMV UL89 activity
O=C1c2c(ccc(O)c2O)CN1N1C(=O)c2ccc(O)c(O)c2C1=O [XZ50],viral yield (in words),[3],significant reductions in viral yield
[N-]=[N+]=NCc1cccc(CN2Cc3ccc(O)c(O)c3C2=O)c1 [XZ99],viral yield (in words),[3],significant reductions in viral yield
O=C(NN1Cc2ccc(O)c(O)c2C1=O)c1cccc(O)c1O [XZ49],viral yield (in words),[3],significant reductions in viral yield
O=C1c2c(ccc(O)c2O)CN1N1Cc2ccc(O)c(O)c2C1=O [XZ48],viral yield (in words),[3],significant reductions in viral yield
[N-]=[N+]=NCc1cccc(CN2C(=O)c3ccc(O)c(O)c3C2=O)c1 [XZ100],viral yield (in words),[3],significant reductions in viral yield
O=C(NNC(=O)c1cccc(O)c1O)c1ccccc1O [XZ45],expression of the late gene (gC) products,[4],significantly inhibited
same,replication of HCMV,[5],inhibits the replication
same,replication of HSV-1,[6],inhibits the replication
same,replication of HSV-2,[7],inhibits the replication
same,ssDNA binding by ICP8,[8],does not affect ssDNA binding
same,ICP8 mediated formation of D-loops,[9],inhibited the ICP8 mediated formation of D-loops
same,viral DNA synthesis,[10],Inhibits Viral DNA Synthesis
same,viral yield (in words),[3],significant reductions in viral yield
same,HSV recombination (recombination rate),[11],significantly inhibited HSV recombination
O=C(NNC(=O)c1cccc(O)c1O)c1cccc(O)c1O [XZ15],viral yield (in words),[3],significant reductions in viral yield
